# Laboratory results from US9624170B2, “4-(piperrazin-1-yl)-pyrrolidin-2-one compounds as monoacylglycerol lipase (MAGL) inhibitors” (TAKEDA PHARMACEUTICAL COMPANY LIMITED, priority 2013, dated 2017).
# Target: T1, human MAGL (His-hMAGL) (Homo sapiens, UniProt Q99685)
# T1 construct: made in house; host or cells: Escherichia coli BL21(DE3)
# T1 sequence (Q99685 1-303): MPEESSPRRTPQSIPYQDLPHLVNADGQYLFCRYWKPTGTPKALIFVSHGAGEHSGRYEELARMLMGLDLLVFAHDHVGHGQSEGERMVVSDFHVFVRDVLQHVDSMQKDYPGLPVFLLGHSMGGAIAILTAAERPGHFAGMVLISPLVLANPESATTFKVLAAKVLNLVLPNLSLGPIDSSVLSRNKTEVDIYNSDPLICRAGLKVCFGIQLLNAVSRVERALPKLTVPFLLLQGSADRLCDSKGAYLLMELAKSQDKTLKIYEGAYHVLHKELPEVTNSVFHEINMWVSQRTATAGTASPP
# Test: Measurement of MAGL inhibitory activity by absorbance
# Type: biochemical
# Conditions: 10 μM test compound; substrate p-nitrophenyl acetate, absorbance at 405 nm
# Description: (1) Cloning of Human MGLL Encoding MAGL Protein and Construction of Expression Plasmid
# Human MGLL cDNA was obtained by PCR using human ORF Clone (DNAForm; Clone ID: 100004585) as a template. For PCR, two kinds of primers: […]
# The obtained PCR product was digested with Bam HI and Not I (Takara Bio Inc.), inserted into the Bam HI/Not I site of pET21HH(V) (pET21a (Novagen) inserted with His x6 and TEV Protease recognition sequence) by using Ligation High (Toyobo Co., Ltd.), and introduced into ECOS™ JM109 (Nippon Gene Co., Ltd.), whereby expression plasmid pET21HH(V)/His-hMGLLv2 for Escherichia coli was constructed. (2) Preparation of Recombinant Polyhistidine Tagged Human MAGL Protein
# Recombinant His-hMAGL protein was prepared by transforming ECOS™ Competent E. coli BL21(DE3) (Nippon Gene Co., Ltd.) with the pET21HH(V)/His-hMGLLv2 plasmid prepared above. Escherichia coli obtained by transformation was inoculated to 10 mL of LB medium (1% peptone, 0.5% yeast extract, 0.5% sodium chloride, 0.01% ampicillin), and cultured at 30° C. for 16 hr. […] When the turbidity of the culture medium reached about 500 Klett unit, the culture temperature was lowered to 16° C., isopropyl-β-D-thiogalactopyranoside (IPTG) was added to a final concentration of 1 mM, and the mixture was further cultured for 19 hr. After the completion of culture, the culture medium was centrifuged (4° C., 6,000 rpm, 10 min) to give His-hMAGL expression Escherichia coli. Then, His-hMAGL expression Escherichia coli was suspended in 50 mM Tris-HCl (pH 8.0, 100 ml) containing 1% Triton X-100, 20 mM imidazole, 3 mM DTT, 5 U/mL Benzonase (Merck) and 150 mM NaCl, sufficiently cooled, and subjected to sonication at […]=60%, 15 sec/ON, 30 sec/OFF for 3 min using ¾″ solid type crushed horn of BRANSON Digital Sonifier 450 (Central Scientific Commerce, Inc.). Furthermore, the homogenate was centrifuged (4° C., 15,000 rpm, 15 min) and the supernatant was obtained. As the purification apparatus, AKTA explorer 10s (GE Healthcare Japan Corporation) was used at 4° C. To the obtained supernatant was added 5M NaCl to the final salt concentration of 0.3 M, and the mixture was flown through and adsorbed to 5 mL of Ni-NTA Superflow Cartridges (QIAGEN) equilibrated in advance with buffer A (50 mM Tris-HCl (pH 8.0) containing 0.05% TritonX-100, 1 mM DTT, 300 mM NaCl). The column was sufficiently washed with buffer A containing 20 mM imidazole and His-hMAGL was eluted with buffer A containing imidazole at a final concentration of 250 mM. The eluate was further subjected to gel filtration using HiLoad 26/600 Superdex 200 pg (GE Healthcare Japan Corporation) equilibrated with 50 mM Tris-HCl pH 8.0 containing 10% glycerol, 0.05% TritonX-100, 1 mM DTT, 150 mM NaCl. The eluted fraction was concentrated by Amicon Ultra-15 10K (Merck Millipore) to give purified His-hMAGL protein. The protein concentration was measured by BCA Protein Assay Kit (Thermo Fisher Scientific) using BSA as the standard.
# (3) Measurement of MAGL Inhibitory Activity
# His-hMAGL obtained above was diluted with enzyme reaction buffer (10 mM Tris-HCl, pH 7.5, 1 mM EDTA, 0.1 (w/v) % Triton X-100) to a concentration of 60 ng/mL. […] Thereafter, to each well was added 750 μM p-nitrophenyl acetate (Wako Pure Chemical Industries, Ltd.) by 5 μL, and the absorbance at 405 nm was measured every 2 minutes up to 10 minutes by EnVision (PerkinElmer). The amount of change was obtained by subtracting the absorbance measured immediately after the start of the reaction from the absorbance measured 10 min after the start of the reaction.
# MAGL inhibitory rate (%) was calculated according to the following calculation formula. (1−(absorbance change amount of test compound addition group−absorbance change amount of enzyme addition-free group)[…](absorbance change amount of test compound addition-free group−absorbance change amount of enzyme addition-free group))×100
row,inhibition at 10 µM [%],Compound
1,93,"O=C(c1cscn1)N1CCN(C2CC(=O)N(c3ccc(Oc4ccccc4)cc3)C2)CC1 (stereo not drawn) [Example 6, 1-(4-phenoxyphenyl)-4-(4-(1,3-thiazol-4-ylcarbonyl)piperazin-1-yl)pyrrolidin-2-one]"
2,87,"N#Cc1cccnc1N1CCN(C2CC(=O)N(c3ccc(Oc4ccccc4)cc3)C2)CC1 (stereo not drawn) [Example 7, 2-(4-(5-Oxo-1-(4-phenoxyphenyl)pyrrolidin-3-yl)piperazin-1-yl)nicotinonitrile]"
3,93,"O=C(c1ccc(Cl)o1)N1CCN(C2CC(=O)N(c3ccc(Oc4ccccc4)cc3)C2)CC1 (stereo not drawn) [Example 8, 4-(4-(5-chloro-2-furoyl)piperazin-1-yl)-1-(4-phenoxyphenyl)pyrrolidin-2-one]"
4,98,"O=C(c1nccs1)N1CCN(C2CC(=O)N(c3ccc(Oc4ccc(F)c(F)c4)cc3)C2)CC1 (stereo not drawn) [Example 12, 1-(4-(3,4-difluorophenoxy)phenyl)-4-(4-(1,3-thiazol-2-ylcarbonyl)piperazin-1-yl)pyrrolidin-2-one]"
5,98,"COc1cc(Oc2ccccc2)ccc1N1CC(N2CCN(C(=O)c3nccs3)CC2)CC1=O (stereo not drawn) [Example 13, 1-(2-Methoxy-4-phenoxyphenyl)-4-(4-(1,3-thiazol-2-ylcarbonyl)piperazin-1-yl)pyrrolidin-2-one]"
6,98,"O=C(c1nccs1)N1CCN(C2CC(=O)N(c3ccc4c(ccn4-c4ccc(F)cc4)c3)C2)CC1 (stereo not drawn) [Example 14, 1-(1-(4-Fluorophenyl)-1H-indol-5-yl)-4-(4-(1,3-thiazol-2-ylcarbonyl)piperazin-1-yl)pyrrolidin-2-one]"
7,96,"O=C(c1nccs1)N1CCN(C2CC(=O)N(c3ccc(Oc4ccccc4)cn3)C2)CC1 (stereo not drawn) [Example 18, 1-(5-phenoxypyridin-2-yl)-4-(4-(1,3-thiazol-2-ylcarbonyl)piperazin-1-yl)pyrrolidin-2-one]"
8,91,"O=C(c1nccs1)N1CCN(C2CC(=O)N(c3ccc(Oc4ccncc4)cc3)C2)CC1 (stereo not drawn) [Example 19, 1-(4-(pyridin-4-yloxy)phenyl)-4-(4-(1,3-thiazol-2-ylcarbonyl)piperazin-1-yl)pyrrolidin-2-one]"
9,93,"O=C(c1nccs1)N1CCN(C2CC(=O)N(c3ccc4ccn(-c5ccc(F)cc5)c4c3)C2)CC1 (stereo not drawn) [Example 20, 1-(1-(4-fluorophenyl)-1H-indol-6-yl)-4-(4-(1,3-thiazol-2-ylcarbonyl)piperazin-1-yl)pyrrolidin-2-one]"
10,69,"O=C(N1CCCC1)N1CCN(C2CC(=O)N(c3ccc(Oc4ccccc4)cc3)C2)CC1 (stereo not drawn) [Example 21, 1-(4-Phenoxyphenyl)-4-(4-(pyrrolidin-1-ylcarbonyl)piperazin-1-yl)pyrrolidin-2-one]"
11,97,"COc1ccc(Oc2ccc(N3CC(N4CCN(C(=O)c5nccs5)CC4)CC3=O)cc2)cc1 (stereo not drawn) [Example 22, 1-(4-(4-methoxyphenoxy)phenyl)-4-(4-(1,3-thiazol-2-ylcarbonyl)piperazin-1-yl)pyrrolidin-2-one]"
12,95,"O=C(c1cocn1)N1CCN(C2CC(=O)N(c3ccc(Oc4ccccc4)cc3)C2)CC1 (stereo not drawn) [Example 36, 4-(4-(1,3-oxazol-4-ylcarbonyl)piperazin-1-yl)-1-(4-phenoxyphenyl)pyrrolidin-2-one]"
13,99,"O=C(c1nccs1)N1CCN(C2CC(=O)N(c3ccc(Cc4ccccc4)cc3)C2)CC1 (stereo not drawn) [Example 38, 1-(4-benzylphenyl)-4-(4-(1,3-thiazol-2-ylcarbonyl)piperazin-1-yl)pyrrolidin-2-one]"
14,97,"COc1cccc(Oc2ccc(N3CC(N4CCN(C(=O)c5nccs5)CC4)CC3=O)cc2)c1 (stereo not drawn) [Example 44, 1-(4-(3-methoxyphenoxy)phenyl)-4-(4-(1,3-thiazol-2-ylcarbonyl)piperazin-1-yl)pyrrolidin-2-one]"
15,97,"COc1ccccc1Oc1ccc(N2CC(N3CCN(C(=O)c4nccs4)CC3)CC2=O)cc1 (stereo not drawn) [Example 45, 1-(4-(2-methoxyphenoxy)phenyl)-4-(4-(1,3-thiazol-2-ylcarbonyl)piperazin-1-yl)pyrrolidin-2-one]"
16,96,"O=C(c1nccs1)N1CCN(C2CC(=O)N(c3ccc4[nH]ncc4c3)C2)CC1 (stereo not drawn) [Example 47, 1-(1H-indazol-5-yl)-4-(4-(1,3-thiazol-2-ylcarbonyl)piperazin-1-yl)pyrrolidin-2-one]"
17,97,"O=C(c1nccs1)N1CCN(C2CC(=O)N(c3cnc4c(ccn4-c4ccc(F)cc4)c3)C2)CC1 (stereo not drawn) [Example 51, 1-(1-(4-fluorophenyl)-1H-pyrrolo[2,3-b]pyridin-5-yl)-4-(4-(1,3-thiazol-2-ylcarbonyl)piperazin-1-yl)pyrrolidin-2-one]"
18,97,"O=C(c1nccs1)N1CCN(C2CC(=O)N(c3ccc4c(ccn4-c4ncc(C(F)(F)F)cn4)c3)C2)CC1 (stereo not drawn) [Example 52, 4-(4-(1,3-Thiazol-2-ylcarbonyl)piperazin-1-yl)-1-(1-(5-(trifluoromethyl)pyrimidin-2-yl)-1H-indol-5-yl)pyrrolidin-2-one]"
19,98,"O=C(c1nccs1)N1CCN(C2CC(=O)N(c3ccc4c(ccn4-c4ccc(C(F)(F)F)cn4)c3)C2)CC1 (stereo not drawn) [Example 53, 4-(4-(1,3-Thiazol-2-ylcarbonyl)piperazin-1-yl)-1-(1-(5-(trifluoromethyl)pyridin-2-yl)-1H-indol-5-yl)pyrrolidin-2-one]"
20,90,"O=C(c1nccs1)N1CCN(C2CC(=O)N(c3ccc(C4CC4)cc3)C2)CC1 (stereo not drawn) [Example 57, 1-(4-Cyclopropylphenyl)-4-(4-(1,3-thiazol-2-ylcarbonyl)piperazin-1-yl)pyrrolidin-2-one]"
21,97,"O=C(c1nccs1)N1CCN(C2CC(=O)N(c3ccccc3OCc3ccccc3)C2)CC1 (stereo not drawn) [Example 58, 1-(2-(benzyloxy)phenyl)-4-(4-(1,3-thiazol-2-ylcarbonyl)piperazin-1-yl)pyrrolidin-2-one]"
22,98,"O=C(c1nccs1)N1CCN(C2CC(=O)N(c3ccc(OCc4ccccc4)cc3)C2)CC1 (stereo not drawn) [Example 60, 1-(4-(Benzyloxy)phenyl)-4-(4-(1,3-thiazol-2-ylcarbonyl)piperazin-1-yl)pyrrolidin-2-one]"
23,95,"O=C(c1nccs1)N1CCN(C2CC(=O)N(c3ccc(-c4ccc(Cl)cc4)cc3)C2)CC1 (stereo not drawn) [Example 63, 1-(4′-chlorobiphenyl-4-yl)-4-(4-(1,3-thiazol-2-ylcarbonyl)piperazin-1-yl)pyrrolidin-2-one]"

# Same assay, conditions: 10 μM test compound; substrate p-nitrophenyl acetate, absorbance at 405 nm; 10 µM
row,Inhibition at 10 μM (%),Compound
1,99,"O=C(c1nccs1)N1CCN(C2CC(=O)N(c3ccc4c(ccn4-c4ccc(F)cc4)c3)C2)CC1 (stereo not drawn) [Example 23, 1-(1-(4-Fluorophenyl)-1H-indol-5-yl)-4-(4-(1,3-thiazol-2-ylcarbonyl)piperazin-1-yl)pyrrolidin-2-one (optical isomer)]"
